Test results taken from patent US20200399262A1, “COMPOUNDS FOR INHIBITING PROTEIN DEGRADATION AND METHODS OF USE THEREOF IN THE TREATMENT OF CANCER” (PI Therapeutics Ltd, priority 2018, published 2020).
≈ marks a conversion by molar mass, not a printed value.

What was measured:
proteasome = assay: Proteasome activity (Proteasome-GLO) in intact MM1.S cells; type: cell-based; conditions: 3 hr at 37° C.
Description: Proteasome activity was measured in intact MM1.S cells as cleavage of peptide substrates, specific for Trypsin like (TL), Chemotrypsin like (CTL) and Caspase like (PL) activities of the proteasome following treatment with Compound B1, Compound AA or Bortezomib (BTZ) at ˜EC50 concentrations for 3 hr at 37° C. BTZ was used as positive control.
Proteasome activity. The assay was performed only when cell viability is ≥90%. Cells were seeded in 96-well white clear bottom plates and treated with diluted compounds or vehicle control in triplicates for 3 hours at various concentrations. Catalytic activity was measured using three luminogenic proteasome substrates: Suc-LLVY-aminoluciferin (Succinyl-leucine-leucine-valine-tyrosine-aminoluciferin), Z-LRR-aminoluciferin (Z-leucine-arginine-arginine-aminoluciferin) and Z-nLPnLD-aminoluciferin (Z-norleucine-proline-norleucine-aspartate-aminoluciferin) for the chymotrypsin-like, trypsin-like and caspase-like activities, respectively (Proteasome-GLO, Promega). The emitted light was proportional to the proteasomal activity. Catalytic activity was calculated as the percent activity from control vehicle-treated cells.
MM1.S cells, were treated with Compound B1, Compound AA or Bortezomib (BTZ) at various concentrations for 3 hr at 37° C. […] Proteasome activity was measured by cleavage of proteasome-specific peptide substrates for TL, CTL and PL activities.

MM1.S = assay: Cell viability, ATPlite 1-step, MM cell lines; type: cell-based; conditions: Homo sapiens; MM1.S MM cell line; 48 hours; read-out: Compound EC50
Description: (§1) Cell Viability. The assay was performed only when cell viability was ≥90%. Cells were seeded in 96-well white clear bottom plates at concentration of 100,000 cells/mL and treated with serially diluted compounds or vehicle (DMSO) control in triplicates for 48 hours (h). Cell viability was determined using the ATPlite 1-step assay system (PerkinElmer). The method was based on the production of light caused by the reaction of ATP, which was a marker for cell viability. […] were added to the plates which were read in a plate reader for luminescence. The emitted light is proportional to the ATP concentration. Viability was calculated as the percent of viable cells from control vehicle-treated cells. EC50 was calculated using Prism software.
(§2) Potency of compounds were assessed by viability assay.

U266 = assay: Cell viability, ATPlite 1-step, MM cell lines; type: cell-based; conditions: Homo sapiens, U-266; U266 MM cell line; 48 hours; read-out: Compound EC50
Description: as §1, §2

MM cell lines = assay: Cell viability, ATPlite 1-step, MM cell lines; type: cell-based; conditions: cell line printed N/A; read-out: Compound EC50
Description: as §1, §2

[1] = test system: poly-ubiquitinated proteins; assay: Western blot of poly-ubiquitinated proteins in MM1.S cells; type: cell-based; conditions: SDS-PAGE immunoblot
Description: MM1.S cells were treated with Compound B1 (FIG. 1A), Compound AA (FIG. 1B) and Compound E1 (FIG. 1C) for indicated periods of time. Following treatment, the cells were harvested, and the lysates resolved on SDS-PAGE. Transferred membranes were blotted with antibodies as indicated. Actin was used as loading control.
Protein analysis by Western blot. At the end of treatment period, the cells were lysed with M-PER mammalian protein extraction reagent (ThermoFisher Scientific) supplemented with protease inhibitors. Equal protein amounts were resolved on pre-cast SDS-PAGE (ThermoFisher Scientific) and transferred to a PVDF membrane. The membrane was immunoblotted with antibodies as indicated. The following antibodies were used: Ub MAb (SC-8017, Santa-Cruz), ATF4, ATF6, phospho JNK, JNK (Cell signaling); eIF2alpha, phospho eIF2alpha (Novus).

[2] = Kinetic solubility by differential UV absorbance; type: physicochemical; conditions: aqueous buffer, kinetic from dmso stock; DMSO stock diluted in PBS, OD before and after centrifugation
Description: FIG. 3A-3B depict the kinetic solubility of Compound B1 (FIG. 3A) and Compound E1 (FIG. 3B) as measured by differential UV absorbance of the compounds, as performed before and after centrifugation. Soluble concentrations were determined when OD was equivalent between centrifuged and non-centrifuged fractions. Compounds were dissolved from co-solvent stock, and further serially 2-fold diluted in PBS. OD was measured at the maximal absorbance for each compound before (BC) and after (AC) centrifugation, using Spark 20M, Tecan.
Kinetic solubility quantification. Compound B1/Compound E1 DMSO stock was diluted with PBS by serial 2-fold dilutions. Then, the samples were centrifuged for 5 minutes at 17,000 g to precipitate any insoluble compound. Each sample was tested at a single wave length (Compound B1 at […]; Compound E1 at […]) in duplicate before and after centrifugation to assess solubility of the compound. Soluble concentrations were determined when optical density (OD) was equivalent between centrifuged and non-centrifuged fractions.
Kinetic solubility of all Compounds was determined by differential UV absorbance before and after centrifugation. […] Solubility concentration was determined when OD was equivalent between centrifuged and non-centrifuged fractions (FIG. 3A-3B).

| SMILES | EC50 (MM1.S) [µM] | EC50 (U266) [µM] | further results |
| --- | --- | --- | --- |
| CC(C)C[C@H](NC(=O)[C@H](Cc1ccccc1)NC(=O)c1cnccn1)B(O)O [Bortezomib, reference compound] |  |  | inhibition of the enzymatic functions of the proteasome (TL, CTL and PL activities) (proteasome): specifically inhibits CTL activity |
| CN(CCCN=[N+]=[N-])CC(=O)NCC(=O)N1C/C(=C\c2ccc(C#N)cc2)C(=O)/C(=C/c2ccc(C#N)cc2)C1 [Compound B2] | < 0.3 |  |  |
| C#CCN(C)CC(=O)NCC(=O)N1C/C(=C\c2ccc(C#N)cc2)C(=O)/C(=C/c2ccc(C#N)cc2)C1 [Compound B3] | < 0.3 | < 0.3 |  |
| CC(=O)NCC(=O)N1C/C(=C\c2ccc(F)c(C#N)c2)C(=O)/C(=C/c2ccc(F)c(C#N)c2)C1 [Compound B5, N-{2-[(3E,5E)-3,5-bis[(3-cyano-4-fluorophenyl)methylidene]-4-oxopiperidin-1-yl]-2-oxoethyl}acetamide] |  | < 0.3 |  |
| CC(=O)NCC(=O)N1C/C(=C\c2ccc(C#N)cc2)C(=O)/C(=C/c2ccc(C#N)cc2)C1 [Compound B6, N-{2-[(3E,5E)-3,5-bis[(4-cyanophenyl)methylidene]-4-oxopiperidin-1-yl]-2-oxoethyl}acetamide] | < 0.3 |  |  |
| CC(=O)N[C@H](CO)C(=O)N1C/C(=C\c2ccc(C#N)cc2)C(=O)/C(=C/c2ccc(C#N)cc2)C1 [Compound B7, N-[(2R)-1-[(3E,5E)-3,5-bis[(4-cyanophenyl)methylidene]-4-oxopiperidin-1-yl]-3-hydroxy-1-oxopropan-2-yl]acetamide] |  | 0.3 to 1 |  |
| N#Cc1ccc(/C=C2\CN(C(=O)CNC(=O)CO)C/C(=C\c3ccc(C#N)cc3)C2=O)cc1 [Compound B8] | < 0.3 |  |  |
| O=C1/C(=C/c2ccc(Cl)c(Cl)c2)CN(C(=O)CNc2ccccc2)C/C1=C\c1ccc(Cl)c(Cl)c1 [Compound B9] |  | ≥ 1 |  |
| CNCC(=O)N1C/C(=C\c2ccc(Cl)c(Cl)c2)C(=O)/C(=C/c2ccc(Cl)c(Cl)c2)C1 [Compound B10] |  | ≥ 1 |  |
| COCCNCC(=O)N1C/C(=C\c2ccc(Cl)c(Cl)c2)C(=O)/C(=C/c2ccc(Cl)c(Cl)c2)C1 [Compound B11] |  | ≥ 1 |  |
| O=C1/C(=C/c2ccc(Cl)c(Cl)c2)CN(C(=O)CCc2ccccc2)C/C1=C\c1ccc(Cl)c(Cl)c1 [Compound B12] |  | 0.3 to 1 |  |
| CC(=O)NCCC(=O)N1C/C(=C\c2ccc(Cl)c(Cl)c2)C(=O)/C(=C/c2ccc(Cl)c(Cl)c2)C1 [Compound B13] | < 0.3 |  |  |
| O=C1/C(=C/c2ccc(Cl)c(Cl)c2)CN(C(=O)C(O)Cc2ccccc2)C/C1=C\c1ccc(Cl)c(Cl)c1 (centres unmarked) [Compound B14] |  | 0.3 to 1 |  |
| O=C1/C(=C/c2ccc(Cl)c(Cl)c2)CN(C(=O)C(Cc2ccccc2)C(=O)O)C/C1=C\c1ccc(Cl)c(Cl)c1 (centres unmarked) [Compound B15] |  | ≥ 1 |  |
| O=C1/C(=C/c2ccc(Cl)c(Cl)c2)CN(C(=O)C2(Nc3ccccc3)CC2)C/C1=C\c1ccc(Cl)c(Cl)c1 [Compound B16] | < 0.3 |  |  |
| COC(Cc1ccccc1)C(=O)N1C/C(=C\c2ccc(Cl)c(Cl)c2)C(=O)/C(=C/c2ccc(Cl)c(Cl)c2)C1 (centres unmarked) [Compound B17] |  | < 0.3 |  |
| N[C@@H](Cc1ccccn1)C(=O)N1C/C(=C\c2ccc(Cl)c(Cl)c2)C(=O)/C(=C/c2ccc(Cl)c(Cl)c2)C1 [Compound B18] |  | < 0.3 |  |
| N[C@@H](Cc1cccc(O)c1)C(=O)N1C/C(=C\c2ccc(Cl)c(Cl)c2)C(=O)/C(=C/c2ccc(Cl)c(Cl)c2)C1 [Compound B19] |  | < 0.3 |  |

| SMILES | EC50 (MM1.S) [µM] | EC50 (U266) [µM] | further results |
| --- | --- | --- | --- |
| O=C1/C(=C/c2ccc(Cl)c(Cl)c2)CN(C(=O)C2COCCN2)C/C1=C\c1ccc(Cl)c(Cl)c1 (centres unmarked) [Compound B20] |  | < 0.3 |  |
| N[C@@H](Cc1ccccc1)C(=O)N1C/C(=C\c2ccccc2)C(=O)/C(=C/c2ccc(Cl)c(Cl)c2)C1 [Compound B21] |  | 0.3 to 1 |  |
| N[C@@H](Cc1ccccc1)C(=O)N1C/C(=C\c2ccc(Cl)c(Cl)c2)C(=O)/C(=C/c2cc(Cl)ccc2Cl)C1 [Compound B22] |  | < 0.3 |  |
| CC(=O)NC1(C(=O)N2C/C(=C\c3ccc(Cl)c(Cl)c3)C(=O)/C(=C/c3ccc(Cl)c(Cl)c3)C2)CC1 [Compound B23] | < 0.3 |  |  |
| CNC(=O)CCC(=O)N1C/C(=C\c2ccc(Cl)c(Cl)c2)C(=O)/C(=C/c2ccc(Cl)c(Cl)c2)C1 [Compound B24] |  | 0.3 to 1 |  |
| CC(=O)NCC(=O)N1C/C(=C\c2ccc(Cl)c(Cl)c2)C(=O)/C(=C/c2ccc(Cl)c(Cl)c2)C1 [Compound B25] |  | < 0.3 |  |
| O=C1/C(=C/c2ccc(Cl)c(Cl)c2)CN(C(=O)C2(Nc3ccccc3)CC2)CC1Cc1ccc(Cl)c(Cl)c1 (centres unmarked) [Compound B26] | ≥ 1 |  |  |
| CC(=O)NCCC(=O)N1C/C(=C\c2ccc(Cl)c(Cl)c2)C(=O)C(Cc2ccc(Cl)c(Cl)c2)C1 (centres unmarked) [Compound B27] |  | ≥ 1 |  |
| CC(C)C(Nc1ccccc1)C(=O)N1C/C(=C\c2ccc(Cl)c(Cl)c2)C(=O)/C(=C/c2ccc(Cl)c(Cl)c2)C1 (centres unmarked) [Compound B28] |  | < 0.3 |  |
| CC(=O)N(C)CCC(=O)N1C/C(=C\c2ccc(Cl)c(Cl)c2)C(=O)/C(=C/c2ccc(Cl)c(Cl)c2)C1 [Compound B29] |  |  | EC50 (MM cell lines): ≥ 1 µM |
| CNC(=O)CC(=O)N1C/C(=C\c2ccc(Cl)c(Cl)c2)C(=O)/C(=C/c2ccc(Cl)c(Cl)c2)C1 [Compound B30] |  | < 0.3 |  |
| CN(C)C(Cc1ccccc1)C(=O)N1C/C(=C\c2ccc(Cl)c(Cl)c2)C(=O)/C(=C/c2ccc(Cl)c(Cl)c2)C1 (centres unmarked) [Compound B32] |  | < 0.3 |  |
| CN(C)CCS(=O)(=O)N1C/C(=C\c2ccc(C#N)cc2)C(=O)/C(=C/c2ccc(C#N)cc2)C1 [Compound BA] | < 0.3 |  |  |
| CN(C)CCCS(=O)(=O)N1C/C(=C\c2ccc(F)c(C(F)(F)F)c2)C(=O)/C(=C/c2ccc(F)c(C(F)(F)F)c2)C1 [Compound CA] | < 0.3 |  |  |
| COCCS(=O)(=O)N1C/C(=C\c2ccc(Cl)c(Cl)c2)C(=O)/C(=C/c2ccc(Cl)c(Cl)c2)C1 [Compound D1] |  | < 0.3 |  |
| Cc1noc(C)c1/C=C1\CN(S(=O)(=O)CCCN(C)C)C/C(=C\c2c(C)noc2C)C1=O [Compound E1] | < 0.3 |  | accumulation of poly-ubiquitinated proteins [1]: observable accumulation of poly-ubiquitinated proteins; solubility kinetic [2]: 2500 µM (≈ 1160 µg/mL) |
| CN(C)CCCS(=O)(=O)N1C/C(=C\c2ccc(C#N)cc2)C(=O)C(Cc2ccc(C#N)cc2)C1 (centres unmarked) [Compound F1] | < 0.3 |  |  |
